Data: article PMC8373216, “Development and Preclinical Evaluation of New Inhaled Lipoglycopeptides for the Treatment of Persistent Pulmonary Methicillin-Resistant Staphylococcus aureus Infections” (Antimicrobial Agents and Chemotherapy, 2021)
In brackets after ≈: the same amount, converted by molar mass. Like-named read-outs stand apart in the source and are kept apart here.

Legend:
[1] = test system: C. freundii; experiment: Expanded panel broth microdilution MIC; type: cell-based; details: Citrobacter freundii; C. freundii MMX 6602; read-out: MIC
[2] = test system: Streptococcus pyogenes; experiment: Expanded panel broth microdilution MIC/MBC; type: cell-based; details: for MIC: Streptococcus pyogenes
[3] = test system: Burkholderia cepacia; experiment: Expanded panel broth microdilution MIC; type: cell-based
[4] = test system: Moraxella catarrhalis; experiment: Expanded panel broth microdilution MIC; type: cell-based
[5] = test system: Peptostreptococcus micros; experiment: Expanded panel broth microdilution MIC; type: cell-based
[6] = test system: Streptococcus mitis; experiment: Expanded panel broth microdilution MIC/MBC; type: cell-based; details: for MIC: Streptococcus mitis
[7] = test system: K. pneumoniae; experiment: Expanded panel broth microdilution MIC; type: cell-based
[8] = test system: Streptococcus anginosus; experiment: Expanded panel broth microdilution MIC/MBC; type: cell-based; details: for MIC: Streptococcus anginosus, read-out: MIC
[9] = test system: S. aureus; experiment: Expanded panel broth microdilution MIC/MBC; details: for MIC: Staphylococcus aureus

**Q.** What does the source list for `CCCCCCCCCCNCCN[C@@]1(C)C[C@H](O[C@H]2[C@H](Oc3c4cc5cc3Oc3ccc(cc3Cl)[C@@H](O)[C@@H](NC(=O)[C@@H](CC(C)C)NC)C(=O)N[C@@H](CC(N)=O)C(=O)N[C@H]5C(=O)N[C@H]3C(=O)N[C@H](C(=O)N[C@H](C(=O)O)c5cc(O)cc(O)c5-c5cc3ccc5O)[C@H](O)c3ccc(c(Cl)c3)O4)O[C@H](CO)[C@@H](O)[C@@H]2O)O[C@@H](C)[C@H]1O` [RV40, N-decylaminoethylvancomycin]?
**A.** MIC [1]: > 64 µg/mL; MIC:MBC ([2]; S. pyogenes ermR): 1; MIC ([2]; ATCC19615, S. pyogenes ATCC 19615, read-out: MIC): 0.06 µg/mL (≈ 36.8 nM); MIC ([2]; S. pyogenes MMX 946, ermR, read-out: MIC): 0.008 µg/mL (≈ 4.9 nM); MIC ([2]; S. pyogenes MMX 8778, read-out: MIC): 0.015 µg/mL (≈ 9.19 nM); MIC ([2]; S. pyogenes ermR, 1 isolate, read-out: MIC): 0.008 µg/mL (≈ 4.9 nM); MIC ([2]; S. pyogenes, 2 isolates, read-out: MIC (median)): 0.04 µg/mL (≈ 24.5 nM); MIC [3]: > 64 µg/mL; MIC ([3]; B. cepacia MMX 9040, read-out: MIC): > 64 µg/mL; MIC range [4]: 1 to 2 µg/mL; MIC ([4]; ATCC8176, M. catarrhalis ATCC 8176, read-out: MIC): 1 µg/mL (≈ 613 nM); MIC ([4]; ATCC8193, M. catarrhalis ATCC 8193, read-out: MIC): 32 µg/mL (≈ 19600 nM); MIC ([4]; M. catarrhalis MMX 3782, read-out: MIC): 1 µg/mL (≈ 613 nM); MIC ([5]; P. micros, 1 isolate): 0.06 µg/mL (≈ 36.8 nM); MIC ([5]; Parvimonas micra, P. micros MMX 3546, read-out: MIC): 0.06 µg/mL (≈ 36.8 nM); MIC:MBC ([6]; S. mitis MGS, MBC on one organism): 1; MIC ([6]; ATCC49456, S. mitis (MGS) ATCC 49456, read-out: MIC): 0.008 µg/mL (≈ 4.9 nM); MIC ([6]; S. mitis (MGS) MMX 5798, read-out: MIC): 0.03 µg/mL (≈ 18.4 nM); MIC ([6]; S. mitis MGS, 2 isolates, read-out: MIC (median)): 0.02 µg/mL (≈ 12.3 nM); MIC ([7]; K. pneumoniae MMX 4679, KPC-2): > 64 µg/mL; MIC ([7]; Klebsiella pneumoniae, K. pneumoniae MMX 2542, read-out: MIC): > 64 µg/mL; MIC:MBC ([8]; S. anginosus AGS): >8; MIC ([8]; ATCC33397, S. anginosus (AGS) ATCC 33397): 0.015 µg/mL (≈ 9.19 nM); MIC ([8]; S. anginosus AGS, 1 isolate): 0.015 µg/mL (≈ 9.19 nM); MIC:MBC ([9]; S. aureus MRSA, MBC median of n = 5): 1; MIC:MBC ([9]; S. aureus MSSA, MBC on one organism): 1; MIC:MBC ([9]; S. aureus VISA, MBC median of n = 2): 1; MIC:MBC ([9]; S. aureus hVISA, MBC on one organism): 1; MIC ([9]; ATCC13709 / MSSA, S. aureus ATCC 13709, MSSA): 0.015 µg/mL (≈ 9.19 nM); MIC ([9]; ATCC29213 / MSSA, S. aureus ATCC 29213, MSSA): 0.008 µg/mL (≈ 4.9 nM); MIC ([9]; ATCC43300 / MRSA, S. aureus ATCC 43300, MRSA): 0.008 µg/mL (≈ 4.9 nM); MIC ([9]; ATCCBAA1556|MRSA|USA300, S. aureus ATCC BAA-1556, MRSA, USA300 (expanded panel)): 0.008 µg/mL (≈ 4.9 nM); MIC ([9]; ATCCBAA1756|MRSA|NRS384|USA300, S. aureus NRS 384, ATCC BAA-1756, MRSA, USA300): 0.008 µg/mL (≈ 4.9 nM); MIC ([9]; MRSA / NRS123 / USA400, S. aureus NRS123, MRSA, USA400): 0.008 µg/mL (≈ 4.9 nM); MIC ([9]; MRSA / NRS725 / USA300, S. aureus NRS725, MRSA, USA300): 0.008 µg/mL (≈ 4.9 nM); MIC ([9]; MRSA / USA300, S. aureus MMX 3982, MRSA, USA300): 0.008 µg/mL (≈ 4.9 nM); MIC ([9]; MRSA, S. aureus MMX 5715, MRSA): 0.015 µg/mL (≈ 9.19 nM); MIC ([9]; MRSA, S. aureus MMX 7899, MRSA): 0.008 µg/mL (≈ 4.9 nM); MIC ([9]; MRSA, S. aureus MMX 7900, MRSA): 0.008 µg/mL (≈ 4.9 nM); MIC ([9]; MRSA, S. aureus MMX 7901, MRSA): 0.008 µg/mL (≈ 4.9 nM); MIC ([9]; MRSA, S. aureus MMX 7902, MRSA): 0.015 µg/mL (≈ 9.19 nM); MIC ([9]; MRSA, S. aureus MMX 7903, MRSA): 0.008 µg/mL (≈ 4.9 nM); MIC ([9]; MRSA, read-out: MIC (median), S. aureus MRSA, 12 isolates): 0.008 µg/mL (≈ 4.9 nM); MIC ([9]; MSSA, S. aureus MMX 7907, MSSA): 0.008 µg/mL (≈ 4.9 nM); MIC ([9]; MSSA, S. aureus MMX 7908, MSSA): 0.015 µg/mL (≈ 9.19 nM); MIC ([9]; MSSA, read-out: MIC (median), S. aureus MSSA, 4 isolates): 0.012 µg/mL (≈ 7.35 nM); MIC ([9]; NRS1 / VISA, S. aureus NRS1, VISA, Mu50): 0.06 µg/mL (≈ 36.8 nM); MIC ([9]; NRS2, S. aureus NRS2, hVISA;Mu3): 0.015 µg/mL (≈ 9.19 nM); MIC ([9]; NRS4 / VISA, S. aureus NRS4, VISA): 0.06 µg/mL (≈ 36.8 nM)
